Data published in patent US10953040B2, “Methods of treating bacterial infections with penam β-lactam antibiotics and branched poly(ethylenimine)” (priority 2015, dated 2021).
Values after ≈ are worked out from the molar mass of the structure shown. Values joined by “and” are separate entries in the source; they are usually repeats but may differ in a detail not shown here. Identical values can stand only once. “Also recorded” adds a separate entry of the source. Like-named read-outs stand apart in the source and are kept apart here.

Legend:
Format in all cases: cell-based
[1] = system: methicillin-resistant Staphylococcus aureus (MRSA) strain ATCC 700787; assay: microbe, parasite or virus in culture; details: for MIC / concentration inhibiting MRSA growth: FIG. 6-8; for MIC: Staphylococcus aureus; for synergy with BPEI / change of efficacy against MRSA on addition of BPEI: BPEI 2.65 μg/mL, FIG. 6-10
Description: (§1) A stock culture was diluted in tryptic soy broth (TSB) and delivered into pre-sterilized 96-well plates. Stock solutions of BPEI and antibiotics, prepared in DMSO, were added to each well of a 96-well plate (final DMSO concentration was 1%), followed by inoculation with MRSA in TSB. Optical density measurements were performed with a Tecan Infinite M200 plate reader and an initial OD600 value recorded. The plates were incubated for 20 h in a humidified incubator at 37° C. Plates were removed, orbitally shaken, and a final OD600 value recorded. […] to obtain the change in OD600 (recorded in the figures as ΔOD600). Antimicrobial activity was determined by the change in optical density. Duplicate measurements were performed and the average reported.
(§2) Using the average ΔOD600 values, separate MIC values for BPEI and ampicillin were determined by the lowest concentration of each that inhibited growth.

[2] = system: methicillin-resistant Staphylococcus aureus (MRSA) strain ATCC 700787; assay: MRSA checkerboard growth inhibition assay with FIC; details: for MIC: Staphylococcus aureus; for interaction with BPEI by FIC values (synergy / additive): OD600<0.05 = growth inhibition; for OD600 of growth media: 20 hours
Description: The fractional inhibitory concentration (FIC) as used herein is a measure of the interaction of two agents, such as an antibiotic and a BPEI compound, used together, and is an indicator of synergy. FIC uses a value of the MIC of each of the independent agents, e.g., MICA and MICB for agents A and B, for a particular bacterium as the basis, then takes the concentration of each component in a mixture where an MIC(A in B) is observed. For example, for a two component system of agents A and B, MIC(A in B) is the concentration of A in the compound mixture and MIC(B in A) is the concentration of B in the compound mixture. The FIC is defined as follows: FICA=(MIC(A in B)/MICA) Eqn. 1 FICB=(MIC(B in A)/MICB) Eqn. 2 FICA+B=FICA+FICB Eqn. 3
Synergism (i.e., the two compounds together provide a synergistic effect) is defined herein as occurring when FICA+B≤0.5. The mixture is defined as having an additive effect when […]. When, FICA+B>4 the mixture is considered to have an antagonistic interaction. An example of how FIC is used to determine synergism is shown in U.S. Pat. No. 8,338,476, the entirety of which is incorporated herein by reference in its entirety.
as §1, §2

[3] = system: Escherichia coli ATCC 11775; assay: E. coli growth inhibition assay (ΔOD600 after 20 h)
Description: (§3) The bacteria used in this work were obtained from the American Type Culture Collection (methicillin-resistant Staphylococcus aureus (MRSA) strain ATCC 700787, Staphylococcus aureus ATCC 25923, Escherichia coli ATCC 11775, Bacillus subtilis (Ehrenberg) Cohn ATCC 23059). Chemicals from Sigma-Aldrich (e.g., DMSO, ampicillin, methicillin, vancomycin, chloramphenicol, and novobiocin) were used as purchased.
as §1

[4] = system: Staphylococcus aureus ATCC 25923; assay: non-resistant S. aureus growth inhibition assay (ΔOD600 after 20 h); details: ATCC25923, ampicillin by itself, FIG. 14
Description: as §3, §1

[5] = with BPEI 2.65 μg/mL (2.7 μg/mL)
[6] = without BPEI, checkerboard FIG. 18-21, read-out: MIC

Compound: COc1cccc(OC)c1C(=O)N[C@@H]1C(=O)N2[C@@H]1SC(C)(C)[C@@H]2C(=O)O [methicillin]
- MIC / concentration inhibiting MRSA growth ([1]; antibiotic without BPEI): > 60 µg/mL
- MIC / concentration inhibiting MRSA growth [1, 5]: 30 µg/mL (≈ 78.9 µM)
- MIC [2, 6]: > 32 µg/mL
- interaction with BPEI by FIC values (synergy / additive) ([2]; checkerboard FIG. 18-21): Synergy occurred

Compound: CC1(C)S[C@@H]2[C@H](NC(=O)[C@H](N)c3ccccc3)C(=O)N2[C@H]1C(=O)O [ampicillin]
- MIC ([1]; read-out: MIC for ampicillin, with BPEI 2.7 μg/mL, FIG. 2): 12 to 25 µg/mL (≈ 34.3 to 71.5 µM)
- MIC ([1]; read-out: MIC for ampicillin, with BPEI 26 μg/mL, FIG. 5): ~1.2 µg/mL (≈ 3.43 µM)
- MIC ([1]; read-out: MIC for ampicillin, without BPEI, FIG. 2): > 50 µg/mL
- MIC ([1]; read-out: MIC for ampicillin, without BPEI, FIG. 3 (second data set)): 50 µg/mL (≈ 143 µM)
- MIC ([2]; with BPEI 8 μg/mL, Table 1, read-out: ampicillin MIC): 8 µg/mL
- MIC ([2]; with low-Mw BPEI 16 μg/mL, Table 1, read-out: ampicillin MIC): 1 µg/mL
- MIC ([2]; without BPEI, Table 1, read-out: ampicillin MIC): 32 µg/mL
- MIC [2, 6]: > 32 µg/mL
- OD600 of growth media ([2]; ampicillin 0.125 + BPEI 0 μg/mL): 0.4361
- OD600 of growth media ([2]; ampicillin 0.250 + BPEI 0 μg/mL): 0.4282
- OD600 of growth media ([2]; ampicillin 0.500 + BPEI 0 μg/mL): 0.4342
- OD600 of growth media ([2]; ampicillin 1 + BPEI 0 μg/mL): 0.4289
- OD600 of growth media ([2]; ampicillin 2 + BPEI 0 μg/mL): 0.4294
- OD600 of growth media ([2]; ampicillin 4 + BPEI 0 μg/mL): 0.4375
- OD600 of growth media ([2]; ampicillin 8 + BPEI 0 μg/mL): 0.4344
- OD600 of growth media ([2]; ampicillin 16 + BPEI 0 μg/mL): 0.3287
- OD600 of growth media ([2]; ampicillin 32 + BPEI 0 μg/mL): 0.0003
- OD600 of growth media ([2]; ampicillin 64 + BPEI 0 μg/mL): 0.0014
- interaction with BPEI by FIC values (synergy / additive) ([2]; checkerboard FIG. 18-21): synergistic activity; also recorded: Synergy
- factor by which the ampicillin MIC is lowered ([2]; with low-Mw BPEI 16 μg/mL): 32 ×
- MIC ([3]; ATCC11775, ampicillin alone, FIG. 12): 3.7 µg/mL (≈ 10.6 µM)
- MIC ([3]; ATCC11775, with BPEI 2.65 μg/mL, FIG. 12, read-out: MIC for ampicillin): 3.7 µg/mL (≈ 10.6 µM)
- MIC [4]: ~0.05 µg/mL (≈ 0.143 µM)

Compound: O=C(N[C@H](CO)[C@H](O)c1ccc([N+](=O)[O-])cc1)C(Cl)Cl [chloramphenicol]
- synergy with BPEI / change of efficacy against MRSA on addition of BPEI [1]: large synergy; also recorded: dramatic synergistic effect
- MIC / concentration inhibiting MRSA growth ([1]; antibiotic without BPEI): 50 µg/mL (≈ 155 µM)
- decrease in the MIC ([1]; on addition of 2.7 μg/mL BPEI, FIG. 8): 10 fold
- MIC / concentration inhibiting MRSA growth [1, 5]: 5 µg/mL (≈ 15.5 µM)

Compound: CC1(C)S[C@@H]2[C@H](NC(=O)[C@H](N)c3ccc(O)cc3)C(=O)N2[C@H]1C(=O)O [amoxicillin]
- MIC / concentration inhibiting MRSA growth ([1]; antibiotic without BPEI): 58 µg/mL (≈ 159 µM)
- MIC / concentration inhibiting MRSA growth [1, 5]: 30 µg/mL and 29 µg/mL
- MIC [2, 6]: > 32 µg/mL
- interaction with BPEI by FIC values (synergy / additive) ([2]; checkerboard FIG. 18-21): synergistic activity

Compound: CO[C@@H]1[C@@H](OC(N)=O)[C@@H](O)[C@H](Oc2ccc3c(O)c(NC(=O)c4ccc(O)c(CC=C(C)C)c4)c(=O)oc3c2C)OC1(C)C [novobiocin]
- synergy with BPEI / change of efficacy against MRSA on addition of BPEI [1]: did not show any synergy; also recorded: not substantially altered

Compound: CN[C@H](CC(C)C)C(=O)N[C@H]1C(=O)N[C@@H](CC(N)=O)C(=O)N[C@H]2C(=O)N[C@H]3C(=O)N[C@H](C(=O)N[C@H](C(=O)O)c4cc(O)cc(O)c4-c4cc3ccc4O)[C@H](O)c3ccc(c(Cl)c3)Oc3cc2cc(c3O[C@@H]2O[C@H](CO)[C@@H](O)[C@H](O)[C@H]2O[C@H]2C[C@](C)(N)[C@H](O)[C@H](C)O2)Oc2ccc(cc2Cl)[C@H]1O [vancomycin]
- synergy with BPEI / change of efficacy against MRSA on addition of BPEI [1]: did not show any synergy; also recorded: does not change
- MIC [2]: 4 µg/mL
- interaction with BPEI by FIC values (synergy / additive) ([2]; checkerboard FIG. 18-21): additive
